One data set deals with H929 cells. Nature of the data set: In vitro cell viability assay (CellTiter-Glo). Type of data set: cell-based, human. The method, then: (§1) All cell lines were grown and treated in RPMI 1640 or Dulbecco’s modified Eagle medium (Sigma, St. Louis, MO) supplemented with 10% fetal bovine serum (Gibco) or 10% human serum (Sigma) and maintained in a humidified incubator at 5% CO2 and 37 °C. DLD-1, MV4-11, NCI-H929 (all ATCC, Manassas, VA, USA) and AMO-1 (DSMZ, Braunschweig, Germany) cells were plated 4000 cells per well in 384-well tissue culture plates and treated with compounds of interest for 24 h at 37 °C, 5% CO2 humidified incubator. Each concentration was tested in duplicate at least 3 separate times. Adherent cells were allowed to adhere overnight prior to treatment. Alternatively, AMO-1 or NCI-H929 cells were treated with ABBV-467 for the indicated contact times (1–24 h) at 37 °C in a 5% CO2 humidified incubator and washed 3 times with compound-free media prior to incubation for the remainder of a 24-h treatment period. Cell viability was subsequently determined using CellTiter-Glo (Promega, Madison, WI, USA) according to the manufacturer’s instructions.
(§2) For in vitro viability assays, mean EC50 and EC90 values were determined from the resulting dose-response curves from at least 3 independent experiments, and depict the mean ± standard error of the mean.
Fig. 2 Apoptosis induced by ABBV-467 is mechanism based and induces cell death in MCL-1-dependent cell lines after short target engagement periods. H929 cells were treated with ABBV-467 in the presence or absence of the pan-caspase inhibitor z-VAD-fmk (50 µM) and the impact on caspase-3/7 activation (a), mitochondrial membrane potential (ΔΨm; b), and apoptosis (c) determined. Alternatively, BAK-deficient SKBR3 cells were treated with ABBV-467 for 24 h and the impact on cell viability compared with the parental cell line, determined by CellTiter-Glo. Inset depicts a western blot of BAK and BAX expression in SKBR3 cell variants using GAPDH as a loading control. Each of the 3 proteins were probed on separate blots (d). Data in (a–d) are presented as the mean ± standard error of the mean. H929 and AMO-1 cells were treated with ABBV-467 at the indicated concentrations and the impact on caspase-3/7 activation and viability (DRAQ7-positive) cells determined over time by Incucyte®. Data are presented as the mean ± standard deviation (e). H929 or AMO-1 cells were cultured in media containing 10% human serum and treated with ABBV-467 for the indicated contact times. Cells were subsequently washed 3 times with drug-free media and incubated in drug-free media for the remainder of the 24-h treatment period at 37 °C before cell viability was determined by CellTiter-Glo. Mean EC50 and EC90 values were determined from the resulting dose-response curves from at least 3 independent experiments, each assessed in quadruplicate, and depict the mean ± standard error of the mean. Presented ABBV-467 dose-response curves in H929 and AMO-1 cells were compiled from at least 3 independent experiments (f).
On the technique in general: ATP-based viability assays read luminescence as a measure of living cells.

For a further data set, the system named is MV4-11 cells. Nature of the data set: In vitro cell viability assay (CellTiter-Glo). Type of data set: cell-based, human. As to conditions: for pEC50: read-out: Individual EC50. On the procedure:
as §1, §2

The next data set deals with DLD-1 cells. Nature of the data set: In vitro cell viability assay (CellTiter-Glo). Type of data set: cell-based, human. On the procedure:
as §1, §2

The next data set addresses hERG (Homo sapiens, UniProt Q12809). Nature of the data set: hERG current, in vitro. Type of data set: cell-based. As to conditions: read-out: hERG tail current IC50. The method, then:
(§3) Supplementary Table S6: Maj or findings in safety pharmac ology cardiovascular studies c onduc ted with ABBV- […]
(§4) Species/Strain Route of Concentrations Sex and N Results
(§5) Administration or Doses per Group […]
(§6) Anesthetized IV 1, 3, and Male No effects up to a plasma concentration dog 10 m g/ k gN=4 o f 16 .83 µg/mL on […]
(§7) aged 8-12 months • Heart rate
(§8) • Systemic vascular resistance
(§9) At 67 .23 mg/m L, an increase in heart rate and decrease in systemic vascular
(§10) Conscious IV 0, 0.3, 1, and Male No effects on blood pressure, heart dog 3 mg/kg N=5–6a rate, or ECG parameters at any dose beagle (plasma concentration of 6.53 µg/mL at (aged 8-12 months 3-m g/ k g do s e )
ECG, electrocardiogram; IC50, half maximal inhibitory concentration; IV, intravenous; QTcV, QT interval correct ed accor ding to the Van de Water formula. No animals or data were excl uded from analysis . Studies were approved by the animal use committee of Abbvie, Lake County, IL. Healthy dogs, as determined by veterinary physical examination and clinical pathology, were selected for study based on availability without explicit randomization. Conscious dog telemetry utiliz ed a Latin square design to randomize for dose order e ff ects. The same 6 dogs received all d oses. Power analysis has shown a group size of 6 can statistically detect an approximately 20 % alteration in measured parameters w ith α =0.0 5. […]

Data set [1] is described as follows: Conscious telemetry-instrumented dog cardiovascular safety pharmacology. The data set is classed as in vivo. As to conditions: conscious beagle, IV, at 3-mg/kg dose.
Text: ABBV-467 was profiled in safety pharmacology studies in anesthetized (non-Good Laboratory Practice [GLP]) and telemetry-instrumented conscious (GLP) dog cardiovascular assays (Supplementary Table S6).
as §3, §4, §5, §6, §7, §8, §9, §10
ECG, electrocardiogram; IC50, half maximal inhibitory concentration; IV, intravenous; QTcV, QT interval correct ed accor ding to the Van de Water formula. No animals or data were excl uded from analysis . […] Healthy dogs, as determined by veterinary physical examination and clinical pathology, were selected for study based on availability without explicit randomization. […] Power analysis has shown a group size of 6 can statistically detect an approximately 20 % alteration in measured parameters w ith α =0.0 5. […]

pEC50: −log10 of the molar value. Several values for one entry are separate records, joined by “and”; a condition that tells them apart may be missing. Equal entries are not always repeated. Where two headings read alike, the source gives them in different places.

Chain of hERG (Q12809 whole entry): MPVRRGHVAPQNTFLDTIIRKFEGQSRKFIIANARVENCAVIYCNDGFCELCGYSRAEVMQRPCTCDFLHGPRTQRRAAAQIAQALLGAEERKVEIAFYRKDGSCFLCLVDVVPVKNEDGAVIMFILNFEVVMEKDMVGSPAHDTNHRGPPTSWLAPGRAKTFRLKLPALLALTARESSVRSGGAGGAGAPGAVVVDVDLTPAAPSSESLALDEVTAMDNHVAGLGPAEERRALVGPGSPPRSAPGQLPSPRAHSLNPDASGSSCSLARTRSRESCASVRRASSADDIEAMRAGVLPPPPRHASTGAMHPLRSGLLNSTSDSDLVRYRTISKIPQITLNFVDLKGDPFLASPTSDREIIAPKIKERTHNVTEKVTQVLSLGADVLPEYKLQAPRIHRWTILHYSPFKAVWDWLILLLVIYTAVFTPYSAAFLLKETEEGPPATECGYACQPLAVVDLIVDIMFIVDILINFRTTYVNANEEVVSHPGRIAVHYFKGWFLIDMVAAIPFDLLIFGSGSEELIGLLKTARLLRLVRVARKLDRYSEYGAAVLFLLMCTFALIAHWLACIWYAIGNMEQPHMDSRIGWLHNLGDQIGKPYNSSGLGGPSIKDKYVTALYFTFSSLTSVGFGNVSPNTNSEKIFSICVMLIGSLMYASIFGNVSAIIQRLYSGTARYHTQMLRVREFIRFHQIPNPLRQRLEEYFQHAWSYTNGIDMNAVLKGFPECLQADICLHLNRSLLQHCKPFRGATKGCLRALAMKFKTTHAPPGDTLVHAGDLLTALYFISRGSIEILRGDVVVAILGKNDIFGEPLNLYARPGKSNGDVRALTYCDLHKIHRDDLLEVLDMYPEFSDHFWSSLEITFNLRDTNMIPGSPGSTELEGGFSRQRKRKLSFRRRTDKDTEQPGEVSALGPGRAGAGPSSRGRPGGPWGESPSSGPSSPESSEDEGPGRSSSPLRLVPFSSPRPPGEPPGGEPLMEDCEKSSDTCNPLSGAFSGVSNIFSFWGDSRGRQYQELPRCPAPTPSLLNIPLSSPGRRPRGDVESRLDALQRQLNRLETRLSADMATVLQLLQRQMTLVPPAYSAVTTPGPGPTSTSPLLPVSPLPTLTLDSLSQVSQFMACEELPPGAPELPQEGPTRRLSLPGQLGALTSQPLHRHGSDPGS

As for `Cc1c(Cl)c2c(Cl)c(C)c1-c1c(-c3ccc(F)cc3)sc3ncnc(c13)O[C@@H](C(=O)O)Cc1cc(ccc1OCc1ccnc(-c3ccc(OC[C@H]4COCCO4)cc3)n1)OC[C@@H](CN1CCN(C)CC1)O2` [ABBV-467], the pEC50 (usually the negative decadic logarithm of the EC50, by convention in mol/L) was 7.07 with H929 cells (Homo sapiens, NCI-H929, 10% human serum, contact time 1 hr, washout, viability at 24 h, read-out: H929 Mean EC50); 7.21 in the data set on H929 cells (Homo sapiens, NCI-H929, 10% human serum, contact time 2 hr, washout, viability at 24 h, read-out: H929 Mean EC50); 7.72 in the data set on H929 cells (Homo sapiens, NCI-H929, 10% human serum, contact time 4 hr, washout, viability at 24 h, read-out: H929 Mean EC50); 7.93 with H929 cells (Homo sapiens, NCI-H929, 10% human serum, contact time 6 hr, washout, viability at 24 h, read-out: H929 Mean EC50); 8.82 in the data set with H929 cells (Homo sapiens, NCI-H929, 24 h, 10% human serum, contact time 24 hr, read-out: H929 Mean EC50); 9.23 and 9.16 and 9.44 and 9.27 and 9.54 and 9.50 and 9.43 and 9.14 and 9.33 with H929 cells (NCI-H929, individual determinations, read-out: Individual EC50). The pEC50 in the data set on MV4-11 cells (Homo sapiens, MV4-11, MV4-11, individual determinations) was 8.39; with MV4-11 cells (MV4-11, individual determinations), 8.37 and 8.46; in the data set with DLD-1 cells (Homo sapiens, DLD-1, arithmetic mean, read-out: Arithmetic Mean EC50), less than 5.00; in the data set with DLD-1 cells (Homo sapiens, DLD-1, individual determinations, read-out: Individual EC50) it was less than 5.00. The EC90 – broadly, the concentration at which the effect reaches the 90% level – stood at 236 nM in the data set with H929 cells (Homo sapiens, NCI-H929, 10% human serum, contact time 2 hr, washout, viability at 24 h, read-out: H929 Mean EC90); 108 nM with H929 cells (Homo sapiens, NCI-H929, 10% human serum, contact time 6 hr, washout, viability at 24 h, read-out: H929 Mean EC90); 5.6 nM in the data set with H929 cells (Homo sapiens, NCI-H929, 24 h, 10% human serum, contact time 24 hr, read-out: H929 Mean EC90); 458 nM with H929 cells (Homo sapiens, NCI-H929, read-out: H929 Mean EC90, 10% human serum, contact time 1 hr, washout, viability at 24 h); 133 nM in the data set with H929 cells (Homo sapiens, NCI-H929, read-out: H929 Mean EC90, 10% human serum, contact time 4 hr, washout, viability at 24 h). For the same compound, the EC50 (commonly the concentration giving half of the maximal effect) with H929 cells (Homo sapiens, NCI-H929, 24 h, read-out: H929 EC50 (nM, 10% FBS), 10% FBS, 24 h continuous treatment) is 0.4 nM; in the data set with H929 cells (Homo sapiens, NCI-H929, NCI-H929, arithmetic mean, read-out: Arithmetic Mean EC50 µM) it was 0.468 nM; in the data set on H929 cells (read-out: H929 EC50 (nM, 10% FBS), 10% FBS, 24 h continuous treatment), 0.47 nM; with MV4-11 cells (Homo sapiens, MV4-11, MV4-11, arithmetic mean, read-out: Arithmetic Mean EC50 µM) it was 0.00391 µM; in the data set with DLD-1 cells (Homo sapiens, DLD-1, read-out: DLD-1 EC50 (nM), 10% FBS, 24 h continuous treatment), more than 10000 nM. Moreover, the “activity in DLD-1” value in the data set on DLD-1 cells was “inactive”. Also, on hERG, the concentration for half-maximal inhibition (IC50) (in general, the concentration at which inhibition is half-maximal) is more than 20.3 µg/mL. In data set [1], the “plasma concentration with no effects on blood pressure, heart rate, or ECG parameters” value was 6.53 µg/mL.
